Results from patent publication US20150010474A1, “Compounds And Methods For Selective Imaging And/Or Ablation” (Auckland Uniservices Limited, priority 2011, published 2015).
One block for each compound: values may come before it.

Columns and labels:
[1] = test system: HCT116 wild type (WT) cancer cells; test: Inhibition of cell proliferation, low cell density IC50 assay; format: cell-based; settings: Homo sapiens, HCT-116; 4 hour drug exposure, washing and regrowth for 5 days
Method: (§1) IC50 values were determined as the concentration of prodrug required to inhibit cell growth by 50% of untreated controls following 4 hour drug exposure, with washing and regrowth for 5 days. WT:NfsA ratios were determined as the WT IC50/NfsA IC50.

[2] = test system: HCT116 cells overexpressing the nitroreductase NfsA from E. coli; test: as above; format: cell-based, human; settings: for IC50: Homo sapiens, HCT-116, 4 hour drug exposure, washing and regrowth for 5 days; for WT:NfsA: WT IC50/NfsA IC50
Method: as §1

[3] = test system: HCT-116 cells stably over-expressing cytochrome P450 reductase (CYPOR); test: Flow cytometry of metabolism and binding (EF5 antibody); format: cell-based, human; settings: 2 h
Method: FIG. 4 illustrates the results of a second independent flow cytometry analysis of compound 15 and 93 metabolism and binding in wild-type HCT-116 cells, HCT-116 cells stably over-expressing cytochrome P450 reductase (CYPOR), a human one-electron reductase known to metabolise nitroheterocyclic and nitroaromatic compounds, or HCT-116 cells stably expressing the bacterial nitroreductase E. coli NfsA. 1×10^6HCT-116 cells were seeded in 6 well plates underaerobic conditions (21% O2, 5% CO2). After 2 h incubation, drug free control (wild-type HCT-116, foreground), 20 μM (wild-type HCT-116, second plot), 100 μM (wild-type HCT-116, third plot), 20 μM (HCT-116-CYPOR, forth plot), 100 μM (HCT-116-CYPOR, fifth plot) or 20 μM (HCT-116-NfsA, sixth plot) of compound 15 or 93 was added. After 2 h incubation cells were harvested and fixed with paraformaldehyde before being incubated overnight with 100 μl of 75 μg/ml EF5 CY5 conjugated antibody. Samples were then analysed on a Becton Dickinson FACscan flow cytometer.
FIG. 5 illustrates the results of flow cytometry analysis of HCT-116 cells stably over-expressing cytochrome P450 reductase (CYPOR), a human one-electron reductase known to metabolise nitroheterocyclic and nitroaromatic compounds. 1×10^6HCT-116-CYPOR cells were seeded in 6 well plates in aerobic, anoxic and 0.2% oxygen conditions designed to replicate the lower limit of pathological hypoxia observed in human tumours. After 2 h incubation, drug free control (foreground), 20 μM (middle) or 100 μM (background) of compound 15 or 67 was added. After 2 h incubation cells were harvested and fixed with paraformaldehyde before being incubated overnight with 100 μl of 75 μg/ml EF5 CY5 conjugated antibody. Samples were then analysed on a Becton Dickinson FAC scan flow cytometer.
FIG. 6 illustrates the results of flow cytometry analysis of compound 15 and 93 metabolism and binding in wild-type HCT-116 cells and HCT-116 cells stably over-expressing cytochrome P450 reductase (CYPOR), a human one-electron reductase known to metabolise nitroheterocyclic and nitroaromatic compounds. 1×10^6 HCT-116 cells were seeded in 6 well plates underanoxic conditions. After 2 h incubation, drug free control (wild-type HCT-116, foreground), 20 μM (wild-type HCT-116, second plot), 100 μM (wild-type HCT-116, third plot), 20 μM (HCT-116-CYPOR, forth plot) or 100 μM (HCT-116-CYPOR, fifth plot) of compound 15 or 93 was added. After 2 h incubation cells were harvested and fixed with paraformaldehyde before being incubated overnight with 100 μl of 75 μg/ml EF5 CY5 conjugated antibody. Samples were then analysed on a Becton Dickinson FACscan flow cytometer.

[4] = test system: nfsA expressing HCT116 cells; settings: 0.7 mM-hr cold EF5; cited from earlier work
[5] = cited from earlier work
NfrA (B.s) = target: T1, NfrA (B.s) (Bacillus subtilis, UniProt P39605); test: Initial rate of metabolism by purified recombinant bacterial nitroreductase (NADPH consumption, UV/Vis); format: biochemical; settings: compound 500 μM, NADPH 200 μM, 10 mM Tris-Cl pH 7.0; μmol NADPH consumed per mg enzyme per minute
T1 construct: made in house
T1 sequence (P39605 whole entry): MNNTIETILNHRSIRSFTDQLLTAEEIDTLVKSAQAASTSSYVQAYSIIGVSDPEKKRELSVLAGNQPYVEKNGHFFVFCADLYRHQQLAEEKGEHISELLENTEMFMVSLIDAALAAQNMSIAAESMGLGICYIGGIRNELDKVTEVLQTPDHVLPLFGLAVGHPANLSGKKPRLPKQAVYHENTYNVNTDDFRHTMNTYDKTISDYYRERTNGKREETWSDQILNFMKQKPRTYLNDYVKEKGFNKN
Method: (§2) The relative initial rates of reductive metabolism of the nitro moiety of test compounds by bacterial nitroreductase's can be measured experimentally by incubating the test compound at near-saturating concentration (determined empirically) with the purified recombinant bacterial nitroreductase enzymes in the presence of NADPH co-factor. UV/Vis spectroscopy is used to measure consumption of the co-factor, indicating metabolism of the test compound by the nitroreductase.
(§3) Compounds 67, 93 and 97 (500 μM) were added to NADPH (200 μM) in 10 mM Tris-Cl pH 7.0. Reactions were initiated by enzyme addition (between 5 and 20 μg per reaction). Rates represent μmol of NADPH consumed per mg enzyme added per minute.

NfsA (E.c) = target: T2, NfsA (E.c) (Escherichia coli, UniProt P17117); test: as above; format: biochemical; settings: compound 500 μM, NADPH 200 μM, 10 mM Tris-Cl pH 7.0; μmol NADPH consumed per mg enzyme per minute
T2 construct: made in house
T2 sequence (P17117 whole entry): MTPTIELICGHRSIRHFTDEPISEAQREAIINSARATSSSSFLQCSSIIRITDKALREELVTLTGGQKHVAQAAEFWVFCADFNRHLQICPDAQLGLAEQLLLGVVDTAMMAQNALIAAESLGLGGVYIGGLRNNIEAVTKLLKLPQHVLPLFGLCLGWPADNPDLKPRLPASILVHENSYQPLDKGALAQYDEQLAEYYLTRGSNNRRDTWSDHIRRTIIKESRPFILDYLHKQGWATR
Method: as §2, §3

NfsB (E.c) = target: T3, NfsB (E.c) (Escherichia coli, UniProt P38489); test: as above; format: biochemical; settings: compound 500 μM, NADPH 200 μM, 10 mM Tris-Cl pH 7.0; μmol NADPH consumed per mg enzyme per minute
T3 construct: made in house
T3 sequence (P38489 whole entry): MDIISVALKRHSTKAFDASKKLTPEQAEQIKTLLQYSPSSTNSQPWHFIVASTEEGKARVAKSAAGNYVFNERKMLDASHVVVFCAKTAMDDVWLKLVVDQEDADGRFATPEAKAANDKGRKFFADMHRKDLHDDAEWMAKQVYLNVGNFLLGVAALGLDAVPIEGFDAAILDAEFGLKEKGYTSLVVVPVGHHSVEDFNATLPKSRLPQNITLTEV
Method: as §2, §3

YcnD (B.s) = target: T4, YcnD (B.s) (Bacillus subtilis, UniProt P94424); test: as above; format: biochemical; settings: compound 500 μM, NADPH 200 μM, 10 mM Tris-Cl pH 7.0; μmol NADPH consumed per mg enzyme per minute
T4 construct: made in house
T4 sequence (P94424 whole entry): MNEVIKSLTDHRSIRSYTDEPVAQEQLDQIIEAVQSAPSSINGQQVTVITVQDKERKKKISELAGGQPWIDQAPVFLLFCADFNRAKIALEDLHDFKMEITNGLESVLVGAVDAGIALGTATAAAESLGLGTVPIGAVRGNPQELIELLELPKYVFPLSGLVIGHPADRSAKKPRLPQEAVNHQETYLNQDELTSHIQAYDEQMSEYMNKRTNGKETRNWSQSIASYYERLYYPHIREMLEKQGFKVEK
Method: as §2, §3

[6] = test system: NTR over-expressing E. coli SOS-R2; test: Growth Inhibition assay in 58-membered NTR over-expression library; format: cell-based, Escherichia coli; settings: 4 h incubation
[7] = test system: bacterial nitroreductase over-expressing E. coli strains; test: IC50 (turbidity) in selected NTR over-expressing library strains; format: cell-based, Escherichia coli; settings: 4 h post-challenge, serial dilution
Method: FIG. 2.3 illustrates the IC50 of compound 67 for selected NTR library strains (i.e. the concentration of compound 67 that yielded only 50% turbidity relative to an unchallenged control 4 h post-challenge, in replicate cultures across a serial dilution of compound 67). The strains selected were all those observed to have SOS activity above the empty plasmid control (“Empty”) in response to challenge with compound 67 as illustrated in FIG. 2(B), plus NfsB (E.c) as a negative control. For the IC50 assays, 100 μl of overnight cultures were used to inoculate 2 ml M63 minimal medium supplemented with 100 μg·ml^−1 ampicillin and 50 μM IPTG and incubated at 30° C., 200 rpm for 3.5 h. 40 μL aliquots from each culture were then added to individual wells of a sterile 384 well plate, each already containing 40 μl of ampicillin and IPTG-supplemented M63 medium and a dilution series of compound 67 as indicated on the X-axis of panel A. A. Raw growth curves. Each NTR over-expression strain was tested at least in duplicate (independent replicates), with the exception of NfsB (E.c), which was only measured once. Culture turbidity was monitored by optical density at 600 nm 4 h post-challenge. B. IC50 values calculated by comparison of the challenged cells with the unchallenged control for each strain, after subtracting the initial absorbance values (t=0 h), using SigmaPlot 10.0 (Systat Software Inc., Richmond, Calif.). Errors are 1 standard error of the mean (SEM).
(§4) FIG. 2.4 illustrates the IC50 of compound 93 for selected NTR library strains. […] B. IC50 values calculated by comparison of the challenged cells with the unchallenged control for each strain, after subtracting the initial absorbance values (t=0 h), using SigmaPlot 10.0 (Systat Software Inc., Richmond, Calif.). […]
as §4, with “2.5” for “2.4”, “97” for “93”

[8] = test system: human solid tumour xenograft NCI-H1299 (WT); test: Hypoxia-dependent binding by ex vivo flow cytometry with pimonidazole co-staining; format: in vivo, NIH-III nude mice; settings: 60 mg/kg i.p.; tumours excised after 120 minutes, single cell suspension
Method: FIG. 11 illustrates the absence of hypoxic-dependent binding of compound 67 and compound 93 by flow cytometry in the human solid tumour xenograft NCI-H1299, with reference to hypoxia staining by compound 15 and pimonidazole (Hypoxyprobe™) as internal standards (positive controls). NCI-H1299 WT tumours were inoculated subcutaneously onto the flank of NIH-III nude mice. When the mixed tumours reached approximately 800 mm^3, mice were dosed i.p. with 60 mg/kg of pimonidazole, and 60 minutes later dosed with either 60 mg/kg of compound 15, or 60 mg/kg of compound 67, or 60 mg/kg of compound 93. After 120 minutes the tumours were excised and enzyme digested to form a single cell suspension before fixation in ice cold 80% ethanol. Single cell immunodetection of bound adducts of compounds was performed using a monoclonal antibody (Mab1, hybridoma clone 4.3.11.3) conjugated to Alexa-488 (Ex/Em 499/519; green) for the detection of pimonidazole adducts, and monoclonal antibody ELK3-51 directly conjugated to the fluorophore CY5 (Ex/Em 650/670 nm; red) for detection of adducts formed by compound 15 or compound 67 or compound 93. The ex-vivo tumour cell samples were analysed on a Becton Dickinson FACscan flow cytometer using FACS Diva software. Integrated fluorescence measurements were recorded for 10,000 single non-debris events. Fluorescence emission was monitored at 530 nm±20 and 670-700 nm for detection of Alexa-488 and CY5 conjugated monoclonal antibodies, respectively.

SMILES: O=C(Cn1ccnc1[N+](=O)[O-])NCC(F)(F)C(F)(F)F [Compound 15, 2-(2-nitro-1H-imidazol-1-yl)-N-(2,2,3,3,3-pentafluoropropyl)acetamide]
- IC50 [1]: 2270 µM
- IC50 [2]: 1 µM
- WT:NfsA [2]: 2270
- Metabolism and binding by FACS, HCT-116-CYPOR cells (FIG. 4) ([3]; 20 μM and 100 μM, aerobic conditions): minimal metabolism and binding
- Metabolism and binding by FACS, HCT-116-CYPOR cells, anoxia (FIG. 6) ([3]; 20 μM and 100 μM, anoxic conditions): significant dose-dependent and reductase dependent increases in metabolism and binding
- Metabolism and binding by FACS, HCT-116-CYPOR cells, 0.2% oxygen (FIG. 5) ([3]; 20 μM or 100 μM, 0.2% oxygen): Significant dose-dependent increases in metabolism
- Metabolism and binding by FACS, HCT-116-CYPOR cells, aerobic (FIG. 5) ([3]; 20 μM or 100 μM, aerobic): negligible metabolism and binding
- Metabolism and binding by FACS, HCT-116-CYPOR cells, anoxia (FIG. 5) ([3]; 20 μM or 100 μM, anoxia): Significant dose-dependent increases in metabolism
- Loss of viability for nfsA expressing HCT116 cells [4]: 90%
- Concentration-time achieved in human plasma ([5]; cold EF5 9 mg/kg): 0.89 mM-hr
- Plasma AUC ([5]; dose of 21 mg/kg injected): 2 mM-hr
- Tolerability of injected dose ([5]; dose of 21 mg/kg): safely injected without any toxicities

- IC50 [1]: > 12500 µM
- IC50 [2]: 16 µM
SMILES: O=[N+]([O-])c1nccn1Cc1cn(C(CO)CF)nn1 (stereo not drawn) [Compound 19, reference compound]
- WT:NfsA [2]: >781

SMILES: O=[N+]([O-])c1cn(Cc2cn(C(CO)CF)nn2)cn1 (stereo not drawn) [Compound 97, 3-fluoro-2-(4-((4-nitro-1H-imidazol-1-yl)methyl)-1H-1,2,3-triazol-1-yl)propan-1-ol]
- Rate of metabolism by NfrA (B.s) (NfrA (B.s)): 3.9 µmol/min/mg
- Rate of metabolism by NfsA (E.c) (NfsA (E.c)): 4.3 µmol/min/mg
- Rate of metabolism by NfsB (E.c) (NfsB (E.c)): 1.4 µmol/min/mg
- Rate of metabolism by YcnD (B.s) (YcnD (B.s)): 6.2 µmol/min/mg
- IC50 [1]: > 12500 µM
- IC50 [2]: 178 µM
- WT:NfsA [2]: >70
- Reductive metabolism at the nitro moiety by NTR library members (NfsA and NfsB families) ([6]; 400 μM compound 67, 130 μM compound 93, 800 μM compound 97): reductively metabolised at the nitro moiety by the majority of the NfsA and NfsB families tested
- Metabolism by members of the NemA nitroreductase family ([6]; 800 μM compound 97): Modest metabolism
- Inhibition of bacterial cell growth in NTR over-expressing strains compared to controls [7]: Inhibition of bacterial cell growth was selectively observed
- melting point: 126 to 129 °C

SMILES: O=[N+]([O-])c1nccn1CC(O)CN1CCCCC1 (stereo not drawn) [pimonidazole, reference compound]
- Hypoxia-dependent binding in NCI-H1299 WT tumours, flow cytometry (FIG. 11) [8]: hypoxic cells that are detected by pimonidazole adduct retention
